Like-named read-outs stand apart in the source and are kept apart here.
What was measured:
Assay in all cases: Efficacy screening assay
Type in all cases: cell-based
[1] = system: CALU6; conditions: CALU6, lung
Method: (§1) The experiment was performed by Oncolead GmbH & Co. KG (Karlsfeld , Germany), based on a standardized screening procedure . Cell lines were purchased directly from the ATCC, NCI and DSMZ cell line c ollections. Cells used for the study had undergone less than 20 passages. To ensure the absence of potential contamination and wrong assignment, all cell lines were tested using a whole genome assay (Agilent, USA). All cell lines were grown as recommended by the suppliers and with addition of 100 U/mL penicillin G and 100 µg/mL; streptomycin. Cell growth and treatments were performed in Nunclon D 96 -well plates (NUNC, Germany). The optimal seeding density for each cell line was determined to ensure exponential growth for the duration of the experiment. All cells growing without anti-cancer agents were sub-conﬂuent by the end of the treatment, as determined by visual inspection.
(§2) After an initial 24 h pre-growth period, the compounds were added. The vehicle concentration […]
(§3) was 0.1% DMSO. After incubation at 37°C for 72 h, the culture medium was aspirated, and the cells were precipitated by the addition of 10% trichloroacetic acid (Sigma-Aldrich, Missouri, US). After overnight incubation at 4°C, the plates were washed three times with deionized water. The precipitates were then stained with SRB (0.4% wt/v sulforhodamine B solution in 1% acetic acid, Sigma-Aldrich, Missouri, US). Afterwards, the plates were washed six times with 1% acetic acid to remove unbound stain. After drying the plates at room temperature, the bound SRB was solubilized with 10 mM Tris base and the optical density was measured at 520 nm using a Victor2 plate reader (Perkin Elmer, Germany). Blank OD values were subtracted from mean OD values for each concentration. The nonlinear curve ﬁtting and EC50 calculations were per formed using XLﬁt and algorithm “205” (ID Business […]
(§4) For comparison of EC50 values in Figure 1F, one-way ANOVA with multiple comparison testing (Tukey) was performed. Multiplicity adjusted p -values for the EC50 with sorafenib versus resminostat for each cell line and comparison between cell lines for sorafenib are presented (95% confidence interval for significance testing). For comparison of EC50 data in Figure 2B, one-way ANOVA with multiple comparison testing (Tukey) was performed. Multiplicity adjusted p-values with 95% confidence interval was applied. For the invasion assays in Figure 4, one-way ANOVA with multiple comparison testing (Tukey) was performed. Multiplicity adjusted p-values with 95% confidence interval was applied. The adjusted p-values comparing vehicle control without vs. with platelets and compound

[2] = system: HCT15; conditions: HCT15, colon
Method: as §1, §2, §3, §4

[3] = system: CLS439
Method: as §1, §2, §3, §4

[4] = system: UO31; conditions: UO31, kidney
Method: as §1, §2, §3, §4

[5] = system: PANC1; conditions: PANC1, pancreas
Method: as §1, §2, §3, §4

[6] = system: MT3; conditions: MT3, breast
Method: as §1, §2, §3, §4

[7] = system: SKNAS; conditions: 72 h, brain
Method: as §1, §2, §3, §4

[8] = system: SAOS2; conditions: SAOS2, bone
Method: as §1, §2, §3, §4

[9] = system: NCIH358M; conditions: 72 h, lung
Method: as §1, §2, §3, §4

[10] = system: EJ28; conditions: EJ28, bladder
Method: as §1, §2, §3, §4

[11] = system: HELA; conditions: 72 h, cervix
Method: as §1, §2, §3, §4

[12] = system: COLO678; conditions: Homo sapiens, COLO-678, COLO678, colon, 72 h
Method: as §1, §2, §3, §4

[13] = system: UMUC3; conditions: UMUC3, bladder
Method: as §1, §2, §3, §4

[14] = system: SNB75; conditions: SNB75, brain
Method: as §1, §2, §3, §4

[15] = system: EFO21; conditions: EFO21, ovary
Method: as §1, §2, §3, §4

[16] = system: RD; conditions: 72 h, muscle
Method: as §1, §2, §3, §4

[17] = system: OVCAR3; conditions: OVCAR3, ovary
Method: as §1, §2, §3, §4

Question: `CN(C)Cc1ccc(S(=O)(=O)n2ccc(/C=C/C(=O)NO)c2)cc1` [resminostat, Resminostat] was tested. Which EC50 ([1]; 72 h, read-out: EC50) did it give?
Answer: Its EC50 is 2.93 µM.

Question: And the EC50 ([1]; Homo sapiens, Calu-6, 72 h, log of EC50, negative, read-out: log(EC50) (converted))?
Answer: The EC50 was 2.95 µM.

Question: What about the EC50 ([1]; Homo sapiens, Calu-6, 72 h, read-out: EC50) of the same compound?
Answer: Its EC50 is 2.93 µM.

Question: What about the EC50 ([2]; 72 h, read-out: EC50) of the same compound?
Answer: Its EC50 is 2.07 µM.

Question: What about the EC50 ([2]; Homo sapiens, HCT-15, 72 h, log of EC50, negative, read-out: log(EC50) (converted)) of the same compound?
Answer: Its EC50 is 2.09 µM.

Question: And the EC50 ([2]; Homo sapiens, HCT-15, 72 h, read-out: EC50)?
Answer: The EC50 was 2.07 µM.

Question: And the EC50 ([3]; 72 h, CLS439, bladder, log of EC50, negative, read-out: log(EC50) (converted))?
Answer: Its EC50 is 0.776 µM.

Question: What about the EC50 ([3]; 72 h, CLS439, bladder, read-out: EC50) of the same compound?
Answer: The EC50 was 0.781 µM.

Question: What about the EC50 ([3]; CLS439, bladder; 72 h; read-out: EC50) of the same compound?
Answer: The EC50 was 0.78 µM.

Question: What about the EC50 ([4]; Homo sapiens, UO-31, 72 h, log of EC50, negative, read-out: log(EC50) (converted)) of the same compound?
Answer: The EC50 was 0.0724 µM.

Question: And the EC50 ([4]; Homo sapiens, UO-31, 72 h, read-out: EC50)?
Answer: The EC50 was 0.0722 µM.

Question: And the EC50 ([4]; 72 h, read-out: EC50)?
Answer: Its EC50 is 0.07 µM.

Question: What about the EC50 ([5]; Homo sapiens, PANC-1, 72 h, log of EC50, negative, read-out: log(EC50) (converted)) of the same compound?
Answer: Its EC50 is 6.76 µM.

Question: And the EC50 ([5]; Homo sapiens, PANC-1, 72 h, read-out: EC50)?
Answer: The EC50 was 6.79 µM.

Question: And the EC50 ([5]; 72 h, read-out: EC50)?
Answer: The EC50 was 6.79 µM.

Question: What about the EC50 ([6]; 72 h, read-out: EC50) of the same compound?
Answer: The EC50 was 1.89 µM.

Question: What about the EC50 ([6]; MT-3, 72 h, log of EC50, negative, read-out: log(EC50) (converted)) of the same compound?
Answer: Its EC50 is 1.91 µM.

Question: What about the EC50 ([6]; MT-3, 72 h, read-out: EC50) of the same compound?
Answer: Its EC50 is 1.89 µM.

Question: And the EC50 ([7]; Homo sapiens, SK-N-AS, log of EC50, negative, read-out: log(EC50) (converted))?
Answer: The EC50 was 3.55 µM.

Question: And the EC50 ([7]; Homo sapiens, SK-N-AS, read-out: EC50)?
Answer: Its EC50 is 3.54 µM.

Question: And the EC50 ([7]; read-out: EC50)?
Answer: The EC50 was 3.54 µM.

Question: What about the EC50 ([8]; Homo sapiens, SAOS-2, 72 h, log of EC50, negative, read-out: log(EC50) (converted)) of the same compound?
Answer: Its EC50 is 1.91 µM.

Question: And the EC50 ([8]; Homo sapiens, SAOS-2, 72 h, read-out: EC50)?
Answer: Its EC50 is 1.89 µM.

Question: What about the EC50 ([8]; 72 h, read-out: EC50) of the same compound?
Answer: Its EC50 is 1.89 µM.

Question: What about the EC50 ([9]; NCI-H358M, log of EC50, negative, read-out: log(EC50) (converted)) of the same compound?
Answer: Its EC50 is 4.37 µM.

Question: What about the EC50 ([9]; NCI-H358M, read-out: EC50) of the same compound?
Answer: The EC50 was 4.33 µM.

Question: What about the EC50 ([9]; read-out: EC50) of the same compound?
Answer: Its EC50 is 4.33 µM.

Question: What about the EC50 ([10]; 72 h, read-out: EC50) of the same compound?
Answer: Its EC50 is 4.59 µM.

Question: What about the EC50 ([10]; Homo sapiens, EJ-28, 72 h, log of EC50, negative, read-out: log(EC50) (converted)) of the same compound?
Answer: Its EC50 is 4.57 µM.

Question: What about the EC50 ([10]; Homo sapiens, EJ-28, 72 h, read-out: EC50) of the same compound?
Answer: The EC50 was 4.59 µM.

Question: And the EC50 ([11]; Homo sapiens, HeLa, log of EC50, negative, read-out: log(EC50) (converted))?
Answer: The EC50 was 3.31 µM.

Question: What about the EC50 ([11]; Homo sapiens, HeLa, read-out: EC50) of the same compound?
Answer: Its EC50 is 3.31 µM.

Question: And the EC50 ([11]; read-out: EC50)?
Answer: The EC50 was 3.32 µM.

Question: And the EC50 ([12]; log of EC50, negative, read-out: log(EC50) (converted))?
Answer: The EC50 was 7.59 µM.

Question: What about the EC50 ([12]; read-out: EC50) of the same compound?
Answer: The EC50 was 7.62 µM.

Question: And the EC50 ([13]; Homo sapiens, UMUC3, 72 h, log of EC50, negative, read-out: log(EC50) (converted))?
Answer: Its EC50 is 3.24 µM.

Question: What about the EC50 ([13]; Homo sapiens, UMUC3, 72 h, read-out: EC50) of the same compound?
Answer: Its EC50 is 3.24 µM.

Question: And the EC50 ([13]; 72 h, read-out: EC50)?
Answer: The EC50 was 3.24 µM.

Question: And the EC50 ([14]; Homo sapiens, SNB-75, 72 h, log of EC50, negative, read-out: log(EC50) (converted))?
Answer: Its EC50 is 6.76 µM.

Question: And the EC50 ([14]; Homo sapiens, SNB-75, 72 h, read-out: EC50)?
Answer: The EC50 was 6.75 µM.

Question: What about the EC50 ([14]; 72 h, read-out: EC50) of the same compound?
Answer: Its EC50 is 6.75 µM.

Question: And the EC50 ([15]; 72 h, read-out: EC50)?
Answer: The EC50 was 7.17 µM.

Question: And the EC50 ([15]; Homo sapiens, EFO-21, 72 h, log of EC50, negative, read-out: log(EC50) (converted))?
Answer: Its EC50 is 7.24 µM.

Question: What about the EC50 ([15]; Homo sapiens, EFO-21, 72 h, read-out: EC50) of the same compound?
Answer: Its EC50 is 7.17 µM.

Question: And the EC50 ([16]; Homo sapiens, log of EC50, negative, read-out: log(EC50) (converted))?
Answer: The EC50 was 1.55 µM.

Question: What about the EC50 ([16]; Homo sapiens, read-out: EC50) of the same compound?
Answer: The EC50 was 1.53 µM.

Question: What about the EC50 ([16]; read-out: EC50) of the same compound?
Answer: Its EC50 is 1.53 µM.

Question: And the EC50 ([17]; Homo sapiens, OVCAR-3, 72 h, log of EC50, negative, read-out: log(EC50) (converted))?
Answer: The EC50 was 3.55 µM.

Question: What about the EC50 ([17]; Homo sapiens, OVCAR-3, 72 h, read-out: EC50) of the same compound?
Answer: Its EC50 is 3.55 µM.

Question: And the EC50 ([17]; 72 h, read-out: EC50)?
Answer: Its EC50 is 3.55 µM.

— article PMC8100298, “Histone deacetylase inhibitor resminostat in combination with sorafenib counteracts platelet-mediated pro-tumoral effects in hepatocellular carcinoma” (Scientific Reports, 2021)
